# Data from ChEMBL document CHEMBL3813700, “New halogenated tris-(phenylalkyl)amines as h5-HT2B receptor ligands” (Bioorg Med Chem Lett, 2016).
# Assays:
# Homo sapiens [1] = species: Homo sapiens; assay: Selectivity index, ratio of Ki for human 5-HT2C receptor to Ki for human 5-HT2B receptor
# [2] = target: T1, 5-hydroxytryptamine receptor 2B (Homo sapiens, UniProt P41595); assay: Displacement of [3H]LSD from human 5-HT2B receptor measured after 90 mins by microbeta scintillation counting method
# [3] = target: T2, 5-hydroxytryptamine receptor 2C (Homo sapiens, UniProt P28335); assay: Displacement of [3H]mesulergine from human 5-HT2C receptor measured after 90 mins by microbeta scintillation counting method
# T2 sequence (P28335 whole entry): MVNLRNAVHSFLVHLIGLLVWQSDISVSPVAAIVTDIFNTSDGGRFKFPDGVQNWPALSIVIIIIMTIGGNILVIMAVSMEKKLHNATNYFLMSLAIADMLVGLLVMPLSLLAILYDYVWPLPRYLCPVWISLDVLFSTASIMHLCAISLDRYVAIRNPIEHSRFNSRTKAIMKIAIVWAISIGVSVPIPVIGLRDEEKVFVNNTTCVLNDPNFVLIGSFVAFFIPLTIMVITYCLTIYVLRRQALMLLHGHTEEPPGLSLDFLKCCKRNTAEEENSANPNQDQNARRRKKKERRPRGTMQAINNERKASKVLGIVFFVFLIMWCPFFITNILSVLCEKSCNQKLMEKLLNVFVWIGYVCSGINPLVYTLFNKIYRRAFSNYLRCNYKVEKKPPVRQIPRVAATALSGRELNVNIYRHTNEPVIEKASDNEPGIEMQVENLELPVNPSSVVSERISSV
# [4] = target: 5-hydroxytryptamine receptor 2A (Homo sapiens, UniProt P28223); assay: Displacement of [3H]ketanserin from human 5-HT2A receptor measured after 90 mins by microbeta scintillation counting method
# Homo sapiens [5] = species: Homo sapiens; assay: Selectivity index, ratio of Ki for human 5-HT2A receptor to Ki for human 5-HT2B receptor
# [6] = target: T1, 5-hydroxytryptamine receptor 2B; assay: Antagonist activity at human 5-HT2B receptor by PDSP assay
# T1 sequence (P41595 whole entry): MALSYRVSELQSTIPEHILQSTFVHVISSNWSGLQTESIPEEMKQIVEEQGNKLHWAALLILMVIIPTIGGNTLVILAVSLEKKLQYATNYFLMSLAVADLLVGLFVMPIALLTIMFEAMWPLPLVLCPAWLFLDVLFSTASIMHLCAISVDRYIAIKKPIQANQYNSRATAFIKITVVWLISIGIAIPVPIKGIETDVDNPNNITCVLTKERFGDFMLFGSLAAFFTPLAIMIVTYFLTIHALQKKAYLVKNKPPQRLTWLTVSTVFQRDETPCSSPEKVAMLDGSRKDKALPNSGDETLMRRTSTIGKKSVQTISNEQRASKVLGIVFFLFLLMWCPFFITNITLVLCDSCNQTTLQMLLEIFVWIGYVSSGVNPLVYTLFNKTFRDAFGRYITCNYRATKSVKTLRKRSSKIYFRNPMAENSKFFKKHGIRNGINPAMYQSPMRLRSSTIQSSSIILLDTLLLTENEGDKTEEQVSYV
# Sequence of 5-hydroxytryptamine receptor 2A (P28223 whole entry): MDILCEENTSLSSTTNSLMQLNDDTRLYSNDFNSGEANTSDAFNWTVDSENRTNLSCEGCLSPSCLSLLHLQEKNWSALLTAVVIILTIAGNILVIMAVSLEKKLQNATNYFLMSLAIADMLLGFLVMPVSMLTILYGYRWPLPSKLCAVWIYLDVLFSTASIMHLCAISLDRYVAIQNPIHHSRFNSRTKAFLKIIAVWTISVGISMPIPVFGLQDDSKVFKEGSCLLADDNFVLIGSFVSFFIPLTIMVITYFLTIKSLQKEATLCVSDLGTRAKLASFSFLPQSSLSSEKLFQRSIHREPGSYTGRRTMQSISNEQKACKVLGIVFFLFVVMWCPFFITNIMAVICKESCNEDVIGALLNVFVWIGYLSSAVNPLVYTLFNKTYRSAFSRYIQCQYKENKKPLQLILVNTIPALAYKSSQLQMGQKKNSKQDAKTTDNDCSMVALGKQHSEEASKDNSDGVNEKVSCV
SMILES,Ratio Ki (Homo sapiens [1]),Ki [2] [nM],Ki [3] [nM],Ki [4] [nM],Ratio Ki (Homo sapiens [5]),IC50 [6] [nM]
COc1ccc(CCN(CCCc2ccc(I)cc2)CCc2ccc3c(c2)OCO3)cc1OC,4,51,224,288,6,–
COc1ccc(CCN(CCCc2ccccc2)CCc2ccc3c(c2)OCO3)cc1OC,15,–,–,–,6,–
Cn1ccc2cc(NC(=O)Nc3cccnc3)ccc21,–,21,–,–,–,–
COc1ccc(CCN(CCCc2cccc(Br)c2)CCc2ccc3c(c2)OCO3)cc1OC,10,14,143,103,7,–
COc1ccc(CCN(CCCc2ccccc2Cl)CCc2ccc3c(c2)OCO3)cc1OC,30,3.1,92,43,14,99
COc1ccc(CCN(CCCc2ccc(Br)cc2)CCc2ccc3c(c2)OCO3)cc1OC,5,45,219,221,5,–
COc1ccc(CCN(CCCc2ccccc2Br)CCc2ccc3c(c2)OCO3)cc1OC,36,3.4,124,54,16,326
COc1ccc(CCN(CCCc2ccc(F)cc2)CCc2ccc3c(c2)OCO3)cc1OC,9,14,126,185,13,–
COc1ccc(CCN(CCCc2cccc(I)c2)CCc2ccc3c(c2)OCO3)cc1OC,9,18,154,169,9,–
COc1ccc(CCN(CCCc2cccc(Cl)c2)CCc2ccc3c(c2)OCO3)cc1OC,12,17,206,125,7,–
COc1ccc(CCN(CCCc2cccc(F)c2)CCc2ccc3c(c2)OCO3)cc1OC,9,18,167,185,10,–
COc1ccc(CCN(CCCc2ccc(Cl)cc2)CCc2ccc3c(c2)OCO3)cc1OC,4,54,235,365,7,–
COc1ccc(CCN(CCCc2ccccc2I)CCc2ccc3c(c2)OCO3)cc1OC,5,13,68,75,6,–
COc1ccc(CCN(CCCc2ccccc2F)CCc2ccc3c(c2)OCO3)cc1OC,46,1.7,79,65,38,135
